From patent US9067894B1, “Compound, composition, and method of activating GIRK potassium channel and use of same for treating conditions of interest” (Vanderbilt University, priority 2013, dated 2015)

Experiments:
GIRK1/4 = molecular target: T1, GIRK1/4 (Homo sapiens, UniProt P48544+P48549); experiment: Thallium flux assay, HEK-293 cells expressing GIRK1/4; format: cell-based; settings: cell line GIRK1-4; average ± SEM
T1 construct: expressed in transfected cells; host or cells: HEK-293
T1 sequence (P48549 1-501): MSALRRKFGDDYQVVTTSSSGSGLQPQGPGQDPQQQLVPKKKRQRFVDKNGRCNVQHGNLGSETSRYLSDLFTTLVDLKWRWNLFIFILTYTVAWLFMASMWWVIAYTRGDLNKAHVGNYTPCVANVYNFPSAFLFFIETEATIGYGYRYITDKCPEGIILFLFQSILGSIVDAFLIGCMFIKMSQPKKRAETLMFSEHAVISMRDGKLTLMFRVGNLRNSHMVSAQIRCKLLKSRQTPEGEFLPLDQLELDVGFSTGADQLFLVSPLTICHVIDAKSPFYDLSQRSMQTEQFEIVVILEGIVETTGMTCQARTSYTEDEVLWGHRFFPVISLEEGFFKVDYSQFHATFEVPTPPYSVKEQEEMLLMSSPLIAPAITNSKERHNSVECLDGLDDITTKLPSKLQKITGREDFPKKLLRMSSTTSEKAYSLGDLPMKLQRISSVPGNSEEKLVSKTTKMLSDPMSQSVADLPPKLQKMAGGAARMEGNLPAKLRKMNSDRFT
T1 sequence (P48544 1-419): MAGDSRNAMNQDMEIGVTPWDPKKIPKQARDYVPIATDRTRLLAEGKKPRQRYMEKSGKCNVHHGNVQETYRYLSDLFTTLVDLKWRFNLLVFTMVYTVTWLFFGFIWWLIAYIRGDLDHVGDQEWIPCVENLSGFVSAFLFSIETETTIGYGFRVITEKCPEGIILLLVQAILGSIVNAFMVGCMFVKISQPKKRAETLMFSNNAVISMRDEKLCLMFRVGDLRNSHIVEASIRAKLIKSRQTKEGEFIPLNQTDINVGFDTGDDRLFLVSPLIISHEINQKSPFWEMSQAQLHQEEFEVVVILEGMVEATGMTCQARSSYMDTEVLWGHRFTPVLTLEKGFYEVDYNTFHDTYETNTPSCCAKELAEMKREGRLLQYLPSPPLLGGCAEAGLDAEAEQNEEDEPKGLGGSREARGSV
Source text: Cell Line Construction and Cell Culture. HEK-293 cells co-expressing human GIRK1/2 and rat mGlu8 were generated as previously described (Niswender et al., 2008). A HEK-293 cell line (ATCC, Manassas, Va.) expressing human GIRK1 and human GIRK2 was constructed by transfecting HEK-293 cells with GIRK1 and GIRK2 (Origene, Rockville, Md.) cloned into the pBudCE4.1 vector (Life Technologies, Carlsbad, Calif.) using FuGene 6 (Promega, Madison, Wis.) transfection reagent. Unless otherwise noted, other ion channel-expressing cells were prepared by transfecting HEK-293 cells with individual or combinations of subunits: GIRK1, pCMV6-A-BSD; GIRK2, pCMV6-A-puro; GIRK3, pCMV6-A-hygro; GIRK4, pCMV6-A-AC; Kv7.4, pIRESneo3. The Kir2.1 and hERG-expressing cell lines were made by transfecting T-REx-293 cells (Life Technologies, Carlsbad, Calif.) with Kir2.1 and Kv11.1, respectively, cloned into pcDNA5TO. Monoclonal cell lines were produced by limiting-dilution cloning of antibiotic-resistant cells and functional selection using the thallium flux assay described below. Unless otherwise noted, cells were maintained in Minimal Essential Medium, Alpha Medium (Mediatech, Manassas, Va.) supplemented with 10% fetal bovine serum (Sigma-Aldrich, Saint Louis, Mo.) and GlutaGro (Mediatech, Manassas, Va.), referred to henceforth as cell culture medium. […]

Adrenergic β2 = molecular target: T2, Adrenergic β2 (Homo sapiens, UniProt P07550); experiment: Radioligand displacement (Ricerca); format: binding
T2 construct: Ricerca

Interleukin IL-1 = molecular target: T3, Interleukin IL-1 (Mus musculus, UniProt P13504); experiment: Radioligand displacement (Ricerca); format: binding
T3 construct: Ricerca (contract laboratory that ran the panel)
T3 sequence (P13504 20-576): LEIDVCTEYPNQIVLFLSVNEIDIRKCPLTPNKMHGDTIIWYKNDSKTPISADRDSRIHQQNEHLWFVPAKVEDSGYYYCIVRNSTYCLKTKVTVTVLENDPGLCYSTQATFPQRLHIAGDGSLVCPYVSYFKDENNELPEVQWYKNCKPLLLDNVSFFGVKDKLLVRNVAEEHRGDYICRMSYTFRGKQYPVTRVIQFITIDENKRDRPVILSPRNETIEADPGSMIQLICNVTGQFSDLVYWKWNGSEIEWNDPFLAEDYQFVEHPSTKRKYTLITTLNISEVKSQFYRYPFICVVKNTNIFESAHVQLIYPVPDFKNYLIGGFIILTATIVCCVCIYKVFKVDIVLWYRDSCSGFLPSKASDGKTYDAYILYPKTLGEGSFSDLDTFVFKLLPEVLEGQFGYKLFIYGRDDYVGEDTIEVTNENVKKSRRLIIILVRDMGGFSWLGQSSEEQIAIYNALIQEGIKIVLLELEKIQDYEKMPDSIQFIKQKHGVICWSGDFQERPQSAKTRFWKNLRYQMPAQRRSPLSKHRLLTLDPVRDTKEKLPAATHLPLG

T2 sequence (P07550 whole entry): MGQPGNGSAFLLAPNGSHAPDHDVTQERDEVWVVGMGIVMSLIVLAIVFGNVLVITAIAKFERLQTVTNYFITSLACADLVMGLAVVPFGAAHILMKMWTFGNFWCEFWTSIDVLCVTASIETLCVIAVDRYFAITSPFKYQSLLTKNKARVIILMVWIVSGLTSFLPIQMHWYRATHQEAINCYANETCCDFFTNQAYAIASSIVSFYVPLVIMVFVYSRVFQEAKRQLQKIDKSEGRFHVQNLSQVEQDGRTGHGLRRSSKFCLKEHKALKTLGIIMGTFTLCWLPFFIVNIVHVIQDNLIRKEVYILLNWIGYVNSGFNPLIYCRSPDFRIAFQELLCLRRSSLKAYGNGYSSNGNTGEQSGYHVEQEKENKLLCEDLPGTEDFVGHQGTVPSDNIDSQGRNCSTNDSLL

**Q.** What does the source list for `Cc1cc(NC(=O)Nc2ccc(F)c(F)c2)n(-c2ccccc2)n1` [VU0456810, 1-(3,4-difluorophenyl)-3-(3-methyl-1-phenyl-1H-pyrazol-5-yl)urea]?
**A.** EC50 (GIRK1/4): 887 ± 266 nM; EC50 Thallium Flux (GIRK1/4): able to activate; inhibition at 10 µM (Adrenergic β2): -5%; inhibition at 10 µM (Interleukin IL-1): 2%
